Source: PMC9057582, “HIF inhibitor 32-134D eradicates murine hepatocellular carcinoma in combination with anti-PD1 therapy” (The Journal of Clinical Investigation, 2022)

How the values were obtained:
[1] = Hematologic indices, serum EPO and organ histology in mice; format: in vivo, C57BL/6J mice; details: 14 days
Procedure: To investigate the effect of 32-134D on erythropoiesis, C57BL/6J mice (n = 4 per group) received a daily intraperitoneal injection of vehicle or 32-134D at a dose of 40 or 80 mg/kg/day for 14 days.
Figure 8 Effect of 32-134D on red blood cell indices. Mice (n = 4 per group) were treated with vehicle (V) or 32-134D (40 mg/kg/day) for 14 days and peripheral blood was analyzed for red blood cell count (RBC), hemoglobin (Hgb), hematocrit (Hct), reticulocytes, mean corpuscular hemoglobin (MCH), mean corpuscular hemoglobin concentration (MCHC), mean corpuscular volume (MCV), and absolute reticulocyte count (A) or EPO levels in serum (B).
To analyze blood parameters, male C57BL/6J mice were treated with vehicle or 32-134D by daily intraperitoneal injection for 14 days. Blood was collected by cardiac puncture into EDTA-coated tubes for analysis of hematologic indices at the Johns Hopkins Mouse Phenotyping Core. Blood collected into noncoated tubes was allowed to clot for 2 hours at room temperature, centrifuged at 2000g for 20 minutes, and serum samples were subjected to EPO ELISA according to the manufacturer’s instructions (Supplemental Table 6). Organs including heart, liver, kidney, small intestine, colon, lungs, and brain were harvested, fixed in formalin for 24 hours, and embedded in paraffin for histopathological investigation. Hematoxylin and eosin staining was performed by the Johns Hopkins Reference Histology Services.
Supplemental Figure 9. Normal organ histology in mice treated with 32-134D. Mice were administered vehicle or 32-134D (40 or 80 mg/kg) by daily intraperitoneal injection for 14 days and tissue sections from the indicated organs were stained with hematoxylin and eosin. Scale bar = 20 µm.
(1 picture or pasted object on this page, not shown here)

[2] = tested on: HIF-1, HIF-2 and p300 recruitment to HREs; experiment: ChIP-qPCR of HRE occupancy in Hep3B cells; format: cell-based, human; details: 16 hours, 5 µM 32-134D or 10 µM PT2385
Procedure: Coadministration of the proteasome inhibitor MG-132 blocked the effect of 32-134D on HIF-1α protein levels (Figure 1H). […] Taken together, the results presented in Figure 1 and Supplemental Figures 1–3 indicate that 32-134D induces HIF-α subunit degradation, thereby inhibiting activation of HIF-1 and HIF-2 target gene transcription.
Cells were seeded overnight and then exposed to 20% or 1% O2 in the presence of compound or vehicle for 16 hours. Protein was cross-linked to DNA by addition of 37% formaldehyde to culture medium for 10 minutes at 37°C and quenched by addition of 0.1 M glycine. Cells were washed with and collected in 5 mL of cold PBS containing PIs. Cells were pelleted and resuspended in 200 μL of SDS lysis buffer (50 mM Tris-HCl [pH 8.1], 10 mM EDTA, 1% SDS) containing PIs and incubated on ice for 10 minutes. Lysates were sonicated to produce DNA fragments ranging from 200 to 900 bp and centrifuged for 10 minutes at 4°C. Supernatants were collected and diluted 10-fold with dilution buffer (16.7 mM Tris-HCl [pH 8.1], 167 mM NaCl, 1.2 mM EDTA, 0.01% SDS, 1.1% Triton X-100) with PIs, precleared with 20 μL of salmon sperm DNA/protein A agarose slurry, and a 20-μL aliquot was reserved as input control. Antibody (2 μg; see Supplemental Table 6) was added and samples were rotated overnight at 4°C. Immune complexes were precipitated with 50 μL of salmon sperm DNA/protein A agarose slurry. Pelleted beads were washed serially using low-salt wash buffer (20 mM Tris-HCl [pH 8.1], 150 mM NaCl, 2 mM EDTA, 0.1% SDS, 1% Triton X-100); high-salt wash buffer (20 mM Tris-HCl [pH 8.1], 500 mM NaCl, 2 mM EDTA, 0.1% SDS, 1% Triton X-100); LiCl wash buffer (10 mM Tris-HCl [pH 8.1], 0.25 M LiCl, 1% Nonidet P-40, 1% deoxycholate, 1 mM EDTA); and TE buffer (10 mM Tris-HCl [pH 8.1], 1 mM EDTA). Elution buffer (1% SDS, 0.1 M NaHCO3) was added and eluates were heated at 65°C overnight to reverse cross-linking. Eluates were treated with proteinase K for 1 hour at 45°C and DNA was purified by extraction in phenol/chloroform/isoamyl alcohol (25:24:1, v/v/v) and isopropanol precipitation. […]

## Brc1ccc2c(-c3csc(-c4c[nH]c5c(Br)cccc45)n3)c[nH]c2c1 [Compound 32-134D]
[1]; 40 or 80 mg/kg ip
  histology of brain, colon, heart, kidney, liver, lungs, and small intestine: no changes
[1]; 40 or 80 mg/kg/day ip
  red blood cell count, hemoglobin, hematocrit, reticulocyte count, MCV, MCH, MCHC versus vehicle: not significantly different
[1]; ELISA
  serum EPO levels versus vehicle: no significant difference
[2]
  hypoxia-induced recruitment of HIFs and p300 to EPO and ANGPTL4 HREs: impaired
  hypoxia-induced recruitment of HIFs and p300 to the CA9 HRE: impaired
